These are literature values, as cited in US20250161231A1, “LUTEIN FOR USE IN INHIBITING MAST CELL DEGRANULATION” (N.V. NUTRICIA, priority 2022, published 2025).

The subject of the data set is human mast cells. As to conditions: literature, Int Arch Allergy Immunol 113, 335-336, 1997.

Turning to `CC1=C(/C=C/C(C)=C/C=C/C(C)=C/C=C/C=C(C)/C=C/C=C(C)/C=C/C2=C(C)CCCC2(C)C)C(C)(C)CCC1` [beta-carotene], the “inhibition of histamine release from human mast cells” value is given as “dose-dependent inhibition”.
